Measured values taken from patent EP0334551A1, “Anti-neoplastic formulations” (priority 1988, dated 1989).
Read-outs that look alike come from different tables or passages of the source.

Key:
[1] = aqueous solution of unlyophilised carboplatin in sterile water, at room temperature
Method: The solutions obtained were filled into amber moulded 20 ml vials and sealed with Teflon-lined caps, West 541. The above two solutions were stored at room temperature for 15 months, then tested for stability. […] The solution was filled into 20 ml amber moulded vials and sealed with grey chlorobutyl rubber caps. […] Each solution was filled into 6 ml clear drawn vials and sealed with Teflon lined caps.

[2] = in all the infusion fluids studied; cited from earlier work
[3] = reconstituted solutions of the lyophilised powder, cited from earlier work

| Compound | stable (time) [1] | stable (time) [2] [h] | stable (time) ([3]; at room temperature) [h] | stable (time) ([3]; under refrigeration) [h] |
| --- | --- | --- | --- | --- |
| [NH2][Pt]1([NH2])[O]C(=O)C2(CCC2)C(=O)[O]1 [carboplatin, cis-Diamine[1,1-cyclobutanedicarboxylato-(2-)-O,O′]platinum [SP-4-27]] | at least 18 months | 24 | 8 | 24 |
| iproplatin | – | 24 | – | – |
